Results taken from patent US20080269342A1, “Pleuromutilin Derivatives and Its Use” (priority 2005, published 2008).

Assays:
[1] = tested on: isolates carrying resistance determinants to other antibiotics; test: in vitro activity against resistant isolates of respiratory pathogens; format: cell-based; settings: penicillin-, macrolide-, methicillin- or levofloxacin-resistant phenotypes
[2] = tested on: representative Gram-positive and Gram-negative pathogens; test: in vivo activity against representative pathogens; settings: pathogens associated with respiratory tract and skin and skin structure infections, including isolates resistant to existing classes of antimicrobials
N. meningitidis = test: in vitro activity against Neisserria sp.; format: cell-based
C. pneumoniae = test: in vitro activity against atypical pathogens; format: cell-based; settings: atypical pathogen
S. aureus = test: in vitro antibacterial activity; format: cell-based
M. catarrhalis = test: in vitro antibacterial activity; format: cell-based; settings: primary respiratory pathogen
S. pyogenes = test: in vitro antibacterial activity; format: cell-based
L. pneumophila = format: cell-based; settings: atypical pathogen
[3] = tested on: representative Gram-positive and Gram-negative pathogens; test: in vitro activity against representative pathogens; format: cell-based; settings: pathogens associated with respiratory tract and skin and skin structure infections, including isolates resistant to existing classes of antimicrobials
N. gonorrhoeae = test: in vitro activity against Neisserria sp.; format: cell-based; settings: both ciprofloxacin susceptible and resistant
F. tularensis = format: cell-based; settings: biothreat organism
M. pneumoniae = test: in vitro activity against atypical pathogens; format: cell-based; settings: atypical pathogen
H. influenzae = test: in vitro antibacterial activity; format: cell-based; settings: primary respiratory pathogen
S. pneumoniae = test: in vitro antibacterial activity; format: cell-based; settings: primary respiratory pathogen
anaerobic organisms = test: in vitro activity against anaerobic organisms; format: cell-based
[4] = primary respiratory pathogen, primary pathogen of skin and skin structure infections

C=C[C@]1(C)C[C@@H](OC(=O)NC(=O)O[C@H]2C[C@H](N)C2)[C@]2(C)[C@H](C)CC[C@]3(CCC(=O)[C@H]32)[C@@H](C)[C@@H]1O [Compound I, trans-3-aminocyclobutyl (1S,2R,3S,4S,6R,7R,8R,14R)-4-ethenyl-3-hydroxy-2,4,7,14-tetramethyl-9-oxotricyclo[5.4.3.01,8]tetradec-6-yl imidodicarbonate]
activity against isolates carrying resistance determinants to other antibiotics [1]: activity | in vivo activity [2]: good | in vitro activity (N. meningitidis): good in vitro activity | in vitro activity (C. pneumoniae): good in vitro activity | activity against isolates carrying resistance determinants to other antibiotics (S. aureus; S. aureus isolates, penicillin-, macrolide-, methicillin- or levofloxacin-resistant phenotypes): retained | in vitro antibacterial activity (S. aureus; [4]): good in vitro antibacterial activity | in vitro antibacterial activity (M. catarrhalis): good in vitro antibacterial activity | activity against isolates carrying resistance determinants to other antibiotics (S. pyogenes; S. pyogenes isolates, penicillin-, macrolide-, methicillin- or levofloxacin-resistant phenotypes): retained | in vitro antibacterial activity (S. pyogenes; [4]): good in vitro antibacterial activity | in vitro activity (L. pneumophila): good in vitro activity | in vitro activity [3]: good | in vitro activity (N. gonorrhoeae): good in vitro activity | in vitro activity (F. tularensis): good in vitro activity | in vitro activity (M. pneumoniae): good in vitro activity | in vitro antibacterial activity (H. influenzae): good in vitro antibacterial activity | in vitro antibacterial activity (S. pneumoniae): good in vitro antibacterial activity | in vitro activity (anaerobic organisms): good in vitro activity
